In general, AUC(0-t) refers to exposure summed from dosing to a finite time, without extrapolation to infinity. Lower therefore signals low exposure. As usually defined, the clearance is the volume of plasma or blood freed of the substance per unit of time. A high value points to efficient removal. What is called Cmax is the highest concentration seen after dosing. For orientation: MRT means the average time that molecules of a dose stay in the body. One may read the half-life as how long it takes for the measured level to halve. High values mean slow loss, low ones fast loss. A word on the Tmax: it is the time at which the peak concentration occurs. One may read the Papp A→B as how fast a substance crosses the layer from the apical side. A higher Papp A→B goes with ready permeation. The Papp B→A is how fast a substance crosses the layer from the basolateral side. In general, efflux ratio refers to a quotient of directional permeabilities that is used to spot active efflux. The term IC50 denotes the concentration needed to halve the response being measured. Lower therefore signals greater potency. One may read the AUC as concentration integrated over time. A lower AUC goes with low exposure.

The values that follow come from article PMC9243172 (Heliyon, 2022).

The nature of series [1]: Pharmacokinetic interaction of Triphala extract with phenacetin in rats. To be noted: for k el: Kel; for half-life: T1/2, rats.
The next series deals with P-gp (Homo sapiens, UniProt P08183). As to the kind of experiment: Rhodamine-123 permeability across Caco-2 cell monolayers. To be noted: Caco-2, pH 7.4. (Caco-2 monolayers are a common model of the intestinal barrier.)
Another series concerns the target CYP2D6 (Homo sapiens, UniProt P10635). Put plainly: Inhibition of CYP2D6. Format: biochemical.
A further series has as its target T1, CYP1A2 (Homo sapiens, UniProt P05177).
T1 sequence (P05177 1-516): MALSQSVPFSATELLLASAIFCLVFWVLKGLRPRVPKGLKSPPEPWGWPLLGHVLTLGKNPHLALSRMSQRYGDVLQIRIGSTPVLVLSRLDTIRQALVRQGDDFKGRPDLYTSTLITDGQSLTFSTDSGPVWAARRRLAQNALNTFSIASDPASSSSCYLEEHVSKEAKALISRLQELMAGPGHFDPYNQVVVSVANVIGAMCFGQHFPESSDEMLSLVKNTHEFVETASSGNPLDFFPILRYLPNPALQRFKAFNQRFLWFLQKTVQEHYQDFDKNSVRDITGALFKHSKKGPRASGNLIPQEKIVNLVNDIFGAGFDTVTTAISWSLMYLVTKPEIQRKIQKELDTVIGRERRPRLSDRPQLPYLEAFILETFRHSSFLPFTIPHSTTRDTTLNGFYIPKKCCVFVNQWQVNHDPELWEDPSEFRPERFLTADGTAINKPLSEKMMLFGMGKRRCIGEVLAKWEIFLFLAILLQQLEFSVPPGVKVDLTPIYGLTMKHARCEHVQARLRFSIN
Put plainly: Inhibition of CYP1A2. In kind it is biochemical.

In a further series the target is CYP2C9 (Homo sapiens, UniProt P11712). Put plainly: Inhibition of CYP2C9.
The next series addresses CYP3A4 (Homo sapiens, UniProt P08684). As to the kind of experiment: Inhibition of CYP3A4. In kind it is biochemical.
A short description of series [2]: Pharmacokinetic interaction of Triphala extract with midazolam in rats. To be noted: for k el: Kel; for half-life: T1/2, rats.
[3] abbreviates: male, Wistar, rat, plasma, iv, 5 mg/kg, rats, phenacetin 5 mg/kg iv, control (phenacetin alone).
Where [4] appears, read: male, Wistar, rat, plasma, po, 30 mg/kg, rats, phenacetin 30 mg/kg oral, control (phenacetin alone).
The mark [5] stands for this setting: rats, oral co-administration of Triphala 500 mg/kg, vs control.
Where [6] appears, read: rats, phenacetin 30 mg/kg oral, control (phenacetin alone).
Setting [7] is: male, Wistar, rat, plasma, iv, 5 mg/kg, rats, midazolam 5 mg/kg iv, control (midazolam alone).
Where [8] appears, read: male, Wistar, rat, plasma, po, 20 mg/kg, rats, midazolam 20 mg/kg oral, control (midazolam alone).
Setting [9] is: rats, midazolam 20 mg/kg oral, control (midazolam alone).

Chain of P-gp (P08183 whole entry): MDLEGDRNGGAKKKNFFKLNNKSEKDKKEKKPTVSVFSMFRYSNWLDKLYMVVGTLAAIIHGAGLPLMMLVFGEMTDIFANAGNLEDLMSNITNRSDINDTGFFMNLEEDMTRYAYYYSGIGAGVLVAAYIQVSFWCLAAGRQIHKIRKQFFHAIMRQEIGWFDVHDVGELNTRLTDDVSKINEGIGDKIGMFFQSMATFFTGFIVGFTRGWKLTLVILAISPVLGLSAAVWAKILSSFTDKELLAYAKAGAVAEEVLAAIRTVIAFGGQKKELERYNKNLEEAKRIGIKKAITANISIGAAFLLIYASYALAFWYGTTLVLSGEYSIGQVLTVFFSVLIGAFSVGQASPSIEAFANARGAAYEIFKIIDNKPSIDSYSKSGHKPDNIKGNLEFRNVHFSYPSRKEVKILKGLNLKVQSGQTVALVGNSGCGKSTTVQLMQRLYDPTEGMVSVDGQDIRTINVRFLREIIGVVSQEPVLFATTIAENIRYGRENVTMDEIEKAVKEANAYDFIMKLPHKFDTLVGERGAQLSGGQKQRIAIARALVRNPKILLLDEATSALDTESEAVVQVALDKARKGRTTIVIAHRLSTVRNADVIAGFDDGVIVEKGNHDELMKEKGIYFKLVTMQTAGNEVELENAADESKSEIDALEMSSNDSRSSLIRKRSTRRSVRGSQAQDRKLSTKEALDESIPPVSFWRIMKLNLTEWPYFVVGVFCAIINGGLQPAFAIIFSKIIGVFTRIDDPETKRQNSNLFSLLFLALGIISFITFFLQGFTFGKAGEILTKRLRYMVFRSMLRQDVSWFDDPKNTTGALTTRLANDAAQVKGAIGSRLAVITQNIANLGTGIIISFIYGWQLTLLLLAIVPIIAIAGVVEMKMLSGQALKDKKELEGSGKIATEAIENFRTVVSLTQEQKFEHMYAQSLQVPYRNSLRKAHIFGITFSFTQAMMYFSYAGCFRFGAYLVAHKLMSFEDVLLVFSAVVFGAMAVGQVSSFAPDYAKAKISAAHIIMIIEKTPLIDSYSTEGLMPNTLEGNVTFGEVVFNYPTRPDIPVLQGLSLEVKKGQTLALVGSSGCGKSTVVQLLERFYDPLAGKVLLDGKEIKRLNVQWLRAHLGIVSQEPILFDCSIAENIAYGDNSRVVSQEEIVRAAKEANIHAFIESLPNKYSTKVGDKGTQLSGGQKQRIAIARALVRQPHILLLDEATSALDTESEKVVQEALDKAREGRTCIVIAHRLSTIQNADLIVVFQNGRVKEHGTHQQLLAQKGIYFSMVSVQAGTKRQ
Chain of CYP2C9 (P11712 whole entry): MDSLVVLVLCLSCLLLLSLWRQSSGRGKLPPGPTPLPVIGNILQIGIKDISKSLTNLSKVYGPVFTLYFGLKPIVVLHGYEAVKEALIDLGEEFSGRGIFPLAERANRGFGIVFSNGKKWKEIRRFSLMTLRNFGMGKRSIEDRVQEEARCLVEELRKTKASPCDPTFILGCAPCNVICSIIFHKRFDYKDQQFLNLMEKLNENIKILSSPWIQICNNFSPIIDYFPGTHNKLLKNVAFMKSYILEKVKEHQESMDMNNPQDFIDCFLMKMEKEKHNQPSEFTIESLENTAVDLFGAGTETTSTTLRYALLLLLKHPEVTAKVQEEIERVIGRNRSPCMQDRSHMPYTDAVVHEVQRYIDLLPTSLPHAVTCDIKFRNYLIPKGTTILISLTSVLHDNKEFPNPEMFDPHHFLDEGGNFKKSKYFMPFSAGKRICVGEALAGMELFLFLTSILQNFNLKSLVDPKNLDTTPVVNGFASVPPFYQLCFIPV
Chain of CYP2D6 (P10635 whole entry): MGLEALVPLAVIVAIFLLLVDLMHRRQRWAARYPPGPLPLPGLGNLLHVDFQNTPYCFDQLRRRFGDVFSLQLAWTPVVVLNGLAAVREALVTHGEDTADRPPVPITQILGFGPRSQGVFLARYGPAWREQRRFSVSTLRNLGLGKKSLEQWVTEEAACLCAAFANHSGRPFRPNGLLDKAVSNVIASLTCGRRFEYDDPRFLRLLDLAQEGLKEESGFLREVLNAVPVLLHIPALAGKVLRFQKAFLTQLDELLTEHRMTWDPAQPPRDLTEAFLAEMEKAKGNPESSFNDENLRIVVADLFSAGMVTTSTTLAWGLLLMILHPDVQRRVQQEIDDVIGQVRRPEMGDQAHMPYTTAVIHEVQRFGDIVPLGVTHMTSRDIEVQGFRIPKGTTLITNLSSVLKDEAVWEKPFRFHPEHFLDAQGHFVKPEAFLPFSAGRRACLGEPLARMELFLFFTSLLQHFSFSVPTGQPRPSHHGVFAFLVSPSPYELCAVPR
Chain of CYP3A4 (P08684 whole entry): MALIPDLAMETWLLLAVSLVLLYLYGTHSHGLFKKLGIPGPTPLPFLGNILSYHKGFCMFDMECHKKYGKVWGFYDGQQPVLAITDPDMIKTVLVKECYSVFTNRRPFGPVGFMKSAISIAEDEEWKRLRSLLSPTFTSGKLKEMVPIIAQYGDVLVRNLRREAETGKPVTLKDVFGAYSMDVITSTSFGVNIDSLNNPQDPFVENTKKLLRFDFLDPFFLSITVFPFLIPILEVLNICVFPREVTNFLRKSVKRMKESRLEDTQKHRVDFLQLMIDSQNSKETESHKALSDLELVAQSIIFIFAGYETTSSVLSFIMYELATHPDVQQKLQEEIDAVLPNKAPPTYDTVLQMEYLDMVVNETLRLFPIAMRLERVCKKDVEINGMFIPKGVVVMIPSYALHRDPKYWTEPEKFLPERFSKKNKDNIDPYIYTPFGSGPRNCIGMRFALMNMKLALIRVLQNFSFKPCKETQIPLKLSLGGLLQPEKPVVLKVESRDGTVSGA

Regarding `CCOc1ccc(NC(C)=O)cc1` [phenacetin], in series [1] (male, Wistar, rat, plasma, iv, 5 mg/kg, AUC0-t, rats, phenacetin 5 mg/kg iv, control (phenacetin alone)), the exposure AUC(0-t) is 1770 ± 190 ng·h/mL. The clearance in series [1] (male, Wistar, rat, plasma, iv, 5 mg/kg, CLtot, rats, phenacetin 5 mg/kg iv, control (phenacetin alone)) is 48.3 mL/min. For the same molecule, the Cmax in series [1] (male, Wistar, rat, plasma, iv, 5 mg/kg, Cmax, rats, phenacetin 5 mg/kg iv, control (phenacetin alone)) came out at 3650 ± 390 ng/mL; in series [1] (setting [6]), 3310 ± 670 ng/mL. The k el in series [1] (setting [3]) is 0.000728 s⁻¹; in series [1] (setting [4]), 0.000206 s⁻¹. Further, the MRT in series [1] (setting [3]) was 21 ± 1.2 min; in series [1] (setting [4]), 79.2 ± 12 min. The half-life was 16.2 ± 1.2 min in series [1] (male, Wistar, rat, plasma, iv, 5 mg/kg, phenacetin 5 mg/kg iv, control (phenacetin alone)) and 58.8 ± 7.2 min in series [1] (male, Wistar, rat, plasma, po, 30 mg/kg, phenacetin 30 mg/kg oral, control (phenacetin alone)). Besides, the time to peak (Tmax) in series [1] (male, Wistar, rat, plasma, po, 30 mg/kg, Tmax, rats, phenacetin 30 mg/kg oral, control (phenacetin alone)) was determined as 19.8 ± 6 min. In addition, the “Enhancement of bioavailability (F) of phenacetin compared with control” value is “approximately 1.2 fold” in series [1] (rats, oral Triphala extract 100 mg/kg) and ~1.6 fold in series [1] (rats, oral Triphala extract 500 mg/kg). Further, the “Increase of bioavailability of phenacetin” value in series [1] (setting [5]) is reported as “about 61.2%”. For the same molecule, the Vdss turned out to be 1.02 ± 0.1 L/h in series [1] (rats, phenacetin 5 mg/kg iv, control (phenacetin alone)); 1.26 ± 0.2 L/h in series [1] (rats, phenacetin 5 mg/kg iv, oral Triphala extract 100 mg/kg); 0.93 ± 0.1 L/h in series [1] (rats, phenacetin 5 mg/kg iv, oral Triphala extract 500 mg/kg). Further, the CLtot/F in series [1] (setting [6]) is 7.74 ± 2.63 L/h. In series [1] (setting [6]), this molecule yielded a Vdss/F of 9.06 ± 1.9 L/h.
In the case of `COC(=O)c1ccccc1-c1c2ccc(=N)cc-2oc2cc(N)ccc12` [Rhodamine 123, rhodamine-123], on P-gp, the Papp A→B at 120 min, 2.5 μg/mL is 64 ± 10 ×10⁻⁶ cm/s; the Papp B→A at 120 min, 2.5 μg/mL was found to be 190 ± 3 ×10⁻⁶ cm/s; the efflux ratio at 120 min, 2.5 μg/mL worked out at 3.2 ± 0.5.
As for `O=c1oc2c(O)c(O)cc3c(=O)oc4c(O)c(O)cc1c4c23` [Ellagic acid], the 50% inhibitory concentration (IC50) against CYP2D6 was 42.4 µM; against CYP1A2, 12.6 µM; at CYP2C9 it was 27.1 µM; at CYP3A4 it was 23.2 µM.
On to `O=C(O)c1cc(O)c(O)c(O)c1` [Gallic acid], for which the IC50 against CYP2D6 was 265 µM; against CYP1A2, 89.9 µM; at CYP2C9, 338 µM.
For the molecule `Cc1ncc2n1-c1ccc(Cl)cc1C(c1ccccc1F)=NC2` [midazolam], in series [2] (setting [7]), the AUC stood at 670 ± 270 ng·h/mL, the Cmax is 910 ± 130 ng/mL, the k el was 0.00015 s⁻¹ and the MRT came to 64.8 ± 27.6 min. Besides, the clearance in series [2] (male, Wistar, rat, plasma, iv, 5 mg/kg, CLtot, rats, midazolam 5 mg/kg iv, control (midazolam alone)) was 83.5 mL/min. Further, the half-life in series [2] (male, Wistar, rat, plasma, iv, 5 mg/kg, midazolam 5 mg/kg iv, control (midazolam alone)) is 58.8 ± 23.4 min. In series [2] (setting [8]), the AUC came out at 1070 ± 70 ng·h/mL, the highest level (Cmax) was 950 ± 130 ng/mL, the k el was 0.000194 s⁻¹ and the MRT was determined as 88.8 ± 14.4 min. The molecule also had a half-life in series [2] (male, Wistar, rat, plasma, po, 20 mg/kg, midazolam 20 mg/kg oral, control (midazolam alone)) of 63.6 ± 11.4 min. The Tmax in series [2] (male, Wistar, rat, plasma, po, 20 mg/kg, Tmax, rats, midazolam 20 mg/kg oral, control (midazolam alone)) was determined as 22.8 ± 2.4 min. Besides, the Vdss in series [2] (rats, midazolam 5 mg/kg iv, control (midazolam alone)) was determined as 7.44 ± 4.0 L/h. In series [2] (setting [9]), this molecule yielded a CLtot/F of 18.89 ± 1.08 L/h and a Vdss/F of 28.05 ± 4.9 L/h. Further, the “Increase of bioavailability of midazolam” value in series [2] (setting [5]) is given as ~40.7%.
